Reference: article PMC9611727, “Optimization of a Novel Mandelamide-Derived Pyrrolopyrimidine Series of PERK Inhibitors” (Pharmaceutics, 2022)

Columns and labels:
Test in all cases: scanMAX kinase panel
Type in all cases: binding
Conditions in all cases: read-out: % Control; for remaining binding at 1 µM: 1000 nM
PDGFRB = target: T1, PDGFRB (Homo sapiens, UniProt P09619)
T1 construct: purchased DiscoverX scanMAX
Source text: (§1) Supplemental Table S2. scanMAXSM Kinome Assay Results. Complete tabulated data of all 468 kinases from the panel, including
(§2) 403 wild-type and 65 mutant isoforms. […] Cmpd 11 and Cmpd 24

DDR1 = target: T2, DDR1 (Homo sapiens, UniProt Q08345)
T2 construct: purchased DiscoverX scanMAX
Source text: as §1, §2

MAP3K3 = target: T3, MAP3K3 (Homo sapiens, UniProt Q99759)
T3 construct: purchased DiscoverX scanMAX
T3 sequence (Q99759 1-626): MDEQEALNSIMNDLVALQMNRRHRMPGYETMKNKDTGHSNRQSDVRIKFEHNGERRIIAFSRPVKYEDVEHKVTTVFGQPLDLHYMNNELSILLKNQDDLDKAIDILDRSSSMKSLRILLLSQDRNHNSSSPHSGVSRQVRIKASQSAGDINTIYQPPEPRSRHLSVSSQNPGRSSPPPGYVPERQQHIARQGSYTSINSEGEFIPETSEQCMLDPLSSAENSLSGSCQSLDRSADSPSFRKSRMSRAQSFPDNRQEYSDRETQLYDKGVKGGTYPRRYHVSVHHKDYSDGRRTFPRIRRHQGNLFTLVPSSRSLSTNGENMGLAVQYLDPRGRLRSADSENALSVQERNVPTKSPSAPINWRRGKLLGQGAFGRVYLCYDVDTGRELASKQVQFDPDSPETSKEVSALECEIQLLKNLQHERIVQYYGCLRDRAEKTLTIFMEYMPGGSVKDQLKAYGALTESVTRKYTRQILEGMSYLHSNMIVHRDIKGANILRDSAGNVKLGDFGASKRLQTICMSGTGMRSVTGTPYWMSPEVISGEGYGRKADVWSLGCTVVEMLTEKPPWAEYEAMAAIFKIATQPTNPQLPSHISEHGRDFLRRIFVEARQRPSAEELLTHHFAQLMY
Source text: as §1, §2

TRKB = target: T4, TRKB (Homo sapiens, UniProt Q16620)
T4 construct: purchased DiscoverX (scanMAX panel)
Source text: as §1, §2

PIK4CB = target: T5, PIK4CB (Homo sapiens, UniProt Q9UBF8)
T5 construct: purchased DiscoverX scanMAX
Source text: as §1, §2

FLT3(K663Q) = target: T6, FLT3(K663Q) (Homo sapiens, UniProt P36888, K663Q)
T6 construct: purchased DiscoverX scanMAX
T6 sequence (P36888 27-993 K663Q): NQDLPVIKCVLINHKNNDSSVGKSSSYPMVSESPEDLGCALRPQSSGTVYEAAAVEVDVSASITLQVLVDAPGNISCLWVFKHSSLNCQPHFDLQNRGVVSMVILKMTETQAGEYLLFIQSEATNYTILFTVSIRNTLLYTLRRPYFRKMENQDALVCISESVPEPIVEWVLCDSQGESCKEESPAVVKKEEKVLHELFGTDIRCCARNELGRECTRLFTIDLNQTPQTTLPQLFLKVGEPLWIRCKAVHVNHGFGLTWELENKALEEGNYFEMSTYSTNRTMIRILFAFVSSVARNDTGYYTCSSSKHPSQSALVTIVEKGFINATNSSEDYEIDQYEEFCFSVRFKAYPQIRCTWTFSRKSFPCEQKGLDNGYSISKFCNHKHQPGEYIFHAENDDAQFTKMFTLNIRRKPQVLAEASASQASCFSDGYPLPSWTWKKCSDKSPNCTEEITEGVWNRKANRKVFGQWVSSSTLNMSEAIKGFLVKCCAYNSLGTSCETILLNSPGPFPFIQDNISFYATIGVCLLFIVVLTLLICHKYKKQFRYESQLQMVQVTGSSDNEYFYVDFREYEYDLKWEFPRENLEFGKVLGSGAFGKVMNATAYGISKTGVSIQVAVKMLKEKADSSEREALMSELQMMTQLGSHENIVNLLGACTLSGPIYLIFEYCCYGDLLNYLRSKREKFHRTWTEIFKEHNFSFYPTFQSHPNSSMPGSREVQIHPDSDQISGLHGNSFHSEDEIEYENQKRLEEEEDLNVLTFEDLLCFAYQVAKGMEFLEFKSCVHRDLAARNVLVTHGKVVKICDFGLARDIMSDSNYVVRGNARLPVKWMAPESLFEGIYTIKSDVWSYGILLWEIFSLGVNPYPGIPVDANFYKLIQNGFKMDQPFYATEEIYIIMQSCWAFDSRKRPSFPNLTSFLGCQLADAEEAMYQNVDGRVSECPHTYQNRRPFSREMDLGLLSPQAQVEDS
Source text: as §1, §2

CAMK4 = target: T7, CAMK4 (Homo sapiens, UniProt Q16566)
T7 construct: purchased DiscoverX scanMAX
T7 sequence (Q16566 1-473): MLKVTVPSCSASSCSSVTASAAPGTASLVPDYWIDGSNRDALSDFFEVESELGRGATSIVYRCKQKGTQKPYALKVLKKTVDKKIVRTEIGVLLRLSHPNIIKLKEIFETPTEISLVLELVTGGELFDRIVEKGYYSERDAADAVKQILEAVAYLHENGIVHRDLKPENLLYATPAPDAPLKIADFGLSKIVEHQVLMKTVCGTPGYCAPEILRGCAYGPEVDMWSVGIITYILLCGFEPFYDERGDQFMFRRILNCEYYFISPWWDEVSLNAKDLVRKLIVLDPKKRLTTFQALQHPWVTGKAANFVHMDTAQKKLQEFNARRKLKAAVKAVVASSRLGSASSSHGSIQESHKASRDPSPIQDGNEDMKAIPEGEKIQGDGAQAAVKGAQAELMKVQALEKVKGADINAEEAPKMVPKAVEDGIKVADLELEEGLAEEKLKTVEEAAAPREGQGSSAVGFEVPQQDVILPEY
Source text: as §1, §2

EIF2AK1 = target: T8, EIF2AK1 (Homo sapiens, UniProt Q9BQI3)
T8 construct: purchased DiscoverX scanMAX
Source text: as §1, §2

T8 sequence (Q9BQI3 whole entry): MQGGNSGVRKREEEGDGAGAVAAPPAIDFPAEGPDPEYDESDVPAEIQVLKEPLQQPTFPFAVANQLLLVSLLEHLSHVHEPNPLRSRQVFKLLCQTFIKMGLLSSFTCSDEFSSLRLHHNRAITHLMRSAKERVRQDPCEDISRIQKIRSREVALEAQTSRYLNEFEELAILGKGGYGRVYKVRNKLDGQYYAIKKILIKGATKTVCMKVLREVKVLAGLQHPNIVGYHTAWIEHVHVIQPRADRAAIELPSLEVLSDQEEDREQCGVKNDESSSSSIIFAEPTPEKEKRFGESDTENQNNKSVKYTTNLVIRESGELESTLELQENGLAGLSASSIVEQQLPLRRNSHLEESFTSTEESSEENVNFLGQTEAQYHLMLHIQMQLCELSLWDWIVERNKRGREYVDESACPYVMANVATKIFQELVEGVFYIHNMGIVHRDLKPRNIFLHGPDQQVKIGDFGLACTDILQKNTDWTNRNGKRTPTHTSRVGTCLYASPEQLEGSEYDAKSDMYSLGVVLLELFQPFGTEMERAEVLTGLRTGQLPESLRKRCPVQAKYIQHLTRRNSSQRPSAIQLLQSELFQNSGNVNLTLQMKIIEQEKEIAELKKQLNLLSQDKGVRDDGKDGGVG
T1 sequence (P09619 33-1106): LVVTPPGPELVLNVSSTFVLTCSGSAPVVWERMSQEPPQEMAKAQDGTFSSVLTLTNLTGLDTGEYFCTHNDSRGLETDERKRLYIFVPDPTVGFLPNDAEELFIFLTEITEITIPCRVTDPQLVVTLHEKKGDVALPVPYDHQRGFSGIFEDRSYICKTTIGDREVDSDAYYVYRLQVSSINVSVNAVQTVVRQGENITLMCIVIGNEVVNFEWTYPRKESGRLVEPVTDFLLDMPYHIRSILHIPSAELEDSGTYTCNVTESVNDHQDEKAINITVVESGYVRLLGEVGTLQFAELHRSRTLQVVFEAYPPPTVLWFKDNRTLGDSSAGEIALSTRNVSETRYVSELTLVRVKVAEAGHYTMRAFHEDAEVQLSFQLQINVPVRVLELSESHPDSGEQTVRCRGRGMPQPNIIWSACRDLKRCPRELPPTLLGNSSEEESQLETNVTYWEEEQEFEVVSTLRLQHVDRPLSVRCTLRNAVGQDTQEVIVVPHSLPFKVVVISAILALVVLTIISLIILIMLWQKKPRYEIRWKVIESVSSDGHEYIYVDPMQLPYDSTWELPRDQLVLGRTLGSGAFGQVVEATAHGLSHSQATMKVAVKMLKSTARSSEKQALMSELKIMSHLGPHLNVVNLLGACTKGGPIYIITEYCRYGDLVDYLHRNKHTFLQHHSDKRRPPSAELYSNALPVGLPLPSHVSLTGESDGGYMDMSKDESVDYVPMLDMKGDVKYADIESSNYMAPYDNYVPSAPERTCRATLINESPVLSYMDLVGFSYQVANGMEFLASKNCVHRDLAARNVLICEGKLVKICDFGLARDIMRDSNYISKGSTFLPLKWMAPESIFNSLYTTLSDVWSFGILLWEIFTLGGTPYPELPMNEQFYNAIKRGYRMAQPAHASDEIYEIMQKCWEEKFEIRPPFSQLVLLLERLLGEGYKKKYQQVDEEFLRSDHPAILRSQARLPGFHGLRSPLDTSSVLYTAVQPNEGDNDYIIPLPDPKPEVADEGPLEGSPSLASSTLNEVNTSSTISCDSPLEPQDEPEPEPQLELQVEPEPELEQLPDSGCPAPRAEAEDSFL
T2 sequence (Q08345 19-913): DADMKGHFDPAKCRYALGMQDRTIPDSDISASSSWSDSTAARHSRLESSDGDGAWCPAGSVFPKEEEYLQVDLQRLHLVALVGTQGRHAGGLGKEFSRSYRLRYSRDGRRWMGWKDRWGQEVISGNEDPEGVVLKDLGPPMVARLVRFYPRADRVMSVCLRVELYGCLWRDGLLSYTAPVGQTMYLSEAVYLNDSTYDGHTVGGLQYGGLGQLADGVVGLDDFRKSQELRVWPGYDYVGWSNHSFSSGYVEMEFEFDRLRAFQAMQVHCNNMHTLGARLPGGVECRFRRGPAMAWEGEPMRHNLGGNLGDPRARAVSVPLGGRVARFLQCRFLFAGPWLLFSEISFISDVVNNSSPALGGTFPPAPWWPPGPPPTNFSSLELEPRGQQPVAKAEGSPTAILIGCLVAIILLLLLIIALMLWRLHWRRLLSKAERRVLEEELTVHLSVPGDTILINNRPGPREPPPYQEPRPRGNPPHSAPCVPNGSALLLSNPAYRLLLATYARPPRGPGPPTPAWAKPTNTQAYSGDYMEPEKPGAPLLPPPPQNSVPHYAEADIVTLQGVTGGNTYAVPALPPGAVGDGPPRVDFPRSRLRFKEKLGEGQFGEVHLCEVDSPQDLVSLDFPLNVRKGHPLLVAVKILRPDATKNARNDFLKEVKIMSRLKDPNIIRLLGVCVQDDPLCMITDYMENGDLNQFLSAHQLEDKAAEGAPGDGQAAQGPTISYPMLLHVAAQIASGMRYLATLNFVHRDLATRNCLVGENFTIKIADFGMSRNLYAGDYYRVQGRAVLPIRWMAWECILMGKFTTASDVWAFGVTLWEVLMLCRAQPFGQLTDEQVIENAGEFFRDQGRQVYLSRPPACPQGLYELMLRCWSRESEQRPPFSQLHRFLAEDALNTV
T4 sequence (Q16620 32-822): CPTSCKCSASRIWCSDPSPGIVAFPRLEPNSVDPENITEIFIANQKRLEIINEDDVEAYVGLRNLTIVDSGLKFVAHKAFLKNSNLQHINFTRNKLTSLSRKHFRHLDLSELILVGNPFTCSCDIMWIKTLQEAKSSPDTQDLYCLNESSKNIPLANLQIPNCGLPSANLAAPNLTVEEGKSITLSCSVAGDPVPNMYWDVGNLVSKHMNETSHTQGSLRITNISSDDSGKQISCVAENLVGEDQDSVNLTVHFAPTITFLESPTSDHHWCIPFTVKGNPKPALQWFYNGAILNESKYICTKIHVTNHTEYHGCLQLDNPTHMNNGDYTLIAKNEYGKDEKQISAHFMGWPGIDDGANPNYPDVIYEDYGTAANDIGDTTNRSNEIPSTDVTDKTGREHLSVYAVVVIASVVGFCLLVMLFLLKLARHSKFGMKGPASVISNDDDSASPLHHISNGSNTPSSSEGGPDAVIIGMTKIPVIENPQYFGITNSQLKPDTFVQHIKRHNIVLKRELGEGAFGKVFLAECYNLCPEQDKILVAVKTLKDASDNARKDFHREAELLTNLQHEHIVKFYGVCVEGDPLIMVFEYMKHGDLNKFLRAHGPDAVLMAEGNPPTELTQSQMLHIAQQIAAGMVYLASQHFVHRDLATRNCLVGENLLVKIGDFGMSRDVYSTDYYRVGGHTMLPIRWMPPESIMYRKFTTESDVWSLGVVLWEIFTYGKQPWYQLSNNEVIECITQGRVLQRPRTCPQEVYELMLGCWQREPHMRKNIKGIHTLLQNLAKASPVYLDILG
T5 sequence (Q9UBF8 whole entry): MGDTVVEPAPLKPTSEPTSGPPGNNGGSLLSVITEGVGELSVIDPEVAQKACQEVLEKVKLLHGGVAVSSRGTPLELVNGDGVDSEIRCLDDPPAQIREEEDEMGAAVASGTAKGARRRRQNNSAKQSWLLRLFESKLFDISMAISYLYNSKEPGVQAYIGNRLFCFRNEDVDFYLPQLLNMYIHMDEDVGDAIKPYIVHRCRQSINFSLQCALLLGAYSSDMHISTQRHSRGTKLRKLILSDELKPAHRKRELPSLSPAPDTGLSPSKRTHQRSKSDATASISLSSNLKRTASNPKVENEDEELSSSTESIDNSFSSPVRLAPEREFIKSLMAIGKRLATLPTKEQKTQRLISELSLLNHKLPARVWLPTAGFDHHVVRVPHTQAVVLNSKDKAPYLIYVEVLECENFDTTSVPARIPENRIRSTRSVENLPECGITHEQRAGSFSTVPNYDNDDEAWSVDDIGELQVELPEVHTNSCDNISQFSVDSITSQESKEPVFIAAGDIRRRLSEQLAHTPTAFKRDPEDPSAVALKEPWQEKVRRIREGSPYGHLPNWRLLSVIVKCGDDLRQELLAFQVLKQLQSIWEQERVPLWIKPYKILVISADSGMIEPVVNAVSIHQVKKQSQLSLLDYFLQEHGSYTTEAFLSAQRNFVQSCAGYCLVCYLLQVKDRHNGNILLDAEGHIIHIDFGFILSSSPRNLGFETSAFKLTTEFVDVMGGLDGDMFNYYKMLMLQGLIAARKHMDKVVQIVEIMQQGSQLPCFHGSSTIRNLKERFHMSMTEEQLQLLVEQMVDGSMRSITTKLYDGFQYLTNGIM

Compound	remaining binding at 1 µM (PDGFRB)	remaining binding at 1 µM (DDR1)	remaining binding at 1 µM (MAP3K3)	remaining binding at 1 µM (TRKB)	remaining binding at 1 µM (PIK4CB)	remaining binding at 1 µM (FLT3(K663Q))	remaining binding at 1 µM (CAMK4)	remaining binding at 1 µM (EIF2AK1)	remaining binding at 0.1 µM (PDGFRB; 100 nM)	remaining binding at 0.1 µM (DDR1; 100 nM)	remaining binding at 0.1 µM (MAP3K3; 100 nM)	remaining binding at 0.1 µM (TRKB; 100 nM)	remaining binding at 0.1 µM (PIK4CB; 100 nM)	remaining binding at 0.1 µM (FLT3(K663Q); 100 nM)	remaining binding at 0.1 µM (CAMK4; 100 nM)	remaining binding at 0.1 µM (EIF2AK1; 100 nM)
Cc1cc(NC(=O)[C@H](O)c2cccc(F)c2)ccc1-c1cn(C)c2ncnc(N)c12 [Compound 11, (R)-N-(4-(4-amino-7-methyl-7H-pyrrolo[2,3-d]pyrimidin-5-yl)-3-methylphenyl)-2-(3-fluorophenyl)-2-hydroxy acetamide]	40%	72%	32%	22%	84%	26%	32%	49%								
Cc1nc(N)c2c(-c3ccc(NC(=O)[C@H](O)c4cccc(F)c4)cc3C)cn(C)c2n1 [Compound 24]	100%	100%	100%	96%	28%	83%	100%	73%								
Cc1nc(N)c2c(-c3ccc(NC(=O)[C@H](O)c4cccc(C(F)(F)F)c4)cc3C)cn(C)c2n1 [Compound 26]	11%	29%	92%	18%	4.3%	20%	75%	78%	100%	100%	100%	92%	93%	51%	100%	89%
